Source: the supplement of paper PMC13380429

Tests used:
Vero E6 [1] = test: relative viability EC50 (midpoint between 100% and the lowest measured viability); higher = less toxic; settings: 72 h
HepG2 [2] = test: as above; settings: 72 h
U2OS [3] = test: as above; settings: 72 h
[4] = test system: A549-ACE2 infected with SARS-CoV-2; test: SARS-CoV-2 infection rate relative to DMSO; higher = more infection; settings: 24 h
Calu-3 [5] = test: cell viability relative to DMSO; higher = less toxic; settings: 72 h
Caco-2 [6] = test: as above; settings: 72 h
Vero E6 [7] = test: as above; settings: 72 h
HepG2 [8] = test: as above; settings: 72 h
U2OS [9] = test: as above; settings: 72 h
A549-ACE2 [10] = test: phospholipidosis EC50; higher = less potent phospholipidosis inducer
A549-ACE2 [11] = test: drug-induced phospholipidosis relative to tamoxifen; higher = more phospholipidosis
[12] = test system: A549-ACE2 infected with SARS-CoV-2; test: morphology score (similarity to uninfected cells); higher = more like uninfected cells; settings: 24 h
Calu-3 [13] = test: drug sensitivity score (DSS) for viability; higher = more toxic; extreme values may be limits of the assay; settings: 72 h
Caco-2 [14] = test: as above; settings: 72 h
Vero E6 [15] = test: as above; settings: 72 h
HepG2 [16] = test: as above; settings: 72 h
U2OS [17] = test: as above; settings: 72 h
[18] = test system: A549-ACE2 infected with SARS-CoV-2; test: cell count relative to DMSO; higher = less toxic; settings: 24 h

CC(C)n1nc(C#Cc2ccccc2)c2c(N)ncnc21 [SPP86]
Settings	drug sensitivity score	relative viability EC50 [µM]
Caco-2 [14]	6.9	–
Calu-3 [13]	3	–
HepG2 [2]	–	0.858
HepG2 [16]	8.3	–
U2OS [3]	–	> 10
U2OS [17]	0.6	–
Vero E6 [1]	–	> 10
Vero E6 [15]	0.7	–

Settings	SARS-CoV-2 infection rate [%]	cell count [%]	cell viability [%]	morphology score	phospholipidosis EC50 [µM]
A549-ACE2 [10], 24 h	–	–	–	–	15.1
Caco-2 [6], 1 nM	–	–	98.1	–	–
Caco-2 [6], 10 nM	–	–	98.9	–	–
Caco-2 [6], 100 nM	–	–	88.9	–	–
Caco-2 [6], 1000 nM	–	–	67.7	–	–
Caco-2 [6], 10000 nM	–	–	56.5	–	–
Calu-3 [5], 1 nM	–	–	107	–	–
Calu-3 [5], 10 nM	–	–	104	–	–
Calu-3 [5], 100 nM	–	–	99.7	–	–
Calu-3 [5], 1000 nM	–	–	92.7	–	–
Calu-3 [5], 10000 nM	–	–	62.8	–	–
HepG2 [8], 1 nM	–	–	102	–	–
HepG2 [8], 10 nM	–	–	106	–	–
HepG2 [8], 100 nM	–	–	103	–	–
HepG2 [8], 1000 nM	–	–	60.9	–	–
HepG2 [8], 10000 nM	–	–	34.4	–	–
U2OS [9], 1 nM	–	–	106	–	–
U2OS [9], 10 nM	–	–	109	–	–
U2OS [9], 100 nM	–	–	107	–	–
U2OS [9], 1000 nM	–	–	107	–	–
U2OS [9], 10000 nM	–	–	75.7	–	–
Vero E6 [7], 1 nM	–	–	99.7	–	–
Vero E6 [7], 10 nM	–	–	99.7	–	–
Vero E6 [7], 100 nM	–	–	100	–	–
Vero E6 [7], 1000 nM	–	–	98.5	–	–
Vero E6 [7], 10000 nM	–	–	81.3	–	–
[4], 0.3 µM	90	–	–	–	–
[4], 3 µM	89	–	–	–	–
[4], 10 µM	53	–	–	–	–
[4], 30 µM	32	–	–	–	–
[12], 0.3 µM	–	–	–	0.34	–
[12], 3 µM	–	–	–	0.41	–
[12], 10 µM	–	–	–	0.54	–
[12], 30 µM	–	–	–	0.29	–
[18], 0.3 µM	–	103	–	–	–
[18], 3 µM	–	103	–	–	–
[18], 10 µM	–	106	–	–	–
[18], 30 µM	–	84	–	–	–

drug-induced phospholipidosis [%], A549-ACE2 [11]
Settings	0.3 µM	0.833333 µM	3.33333 µM	6.66667 µM	10 µM	30 µM
24 h	3.29	3.69	12.6	41.4	63.6	142
48 h	3.96	2.69	12.1	21.7	35.6	–
72 h	6.41	0.816	8.31	18.5	28.1	–

CC(C)(C)c1ccc(C(=O)CCCN2CCC(OC(c3ccccc3)c3ccccc3)CC2)cc1 [ebastine]
Settings	drug sensitivity score	relative viability EC50 [µM]
Caco-2 [14]	1.6	–
Calu-3 [13]	1.9	–
HepG2 [16]	1.5	–
U2OS [3]	–	> 10
U2OS [17]	0.3	–
Vero E6 [1]	–	> 10
Vero E6 [15]	0	–

Settings	SARS-CoV-2 infection rate [%]	cell count [%]	cell viability [%]	morphology score	phospholipidosis EC50 [µM]
A549-ACE2 [10], 24 h	–	–	–	–	3.13
A549-ACE2 [10], 48 h	–	–	–	–	22.1
A549-ACE2 [10], 72 h	–	–	–	–	17.3
Caco-2 [6], 1 nM	–	–	97.6	–	–
Caco-2 [6], 10 nM	–	–	102	–	–
Caco-2 [6], 100 nM	–	–	104	–	–
Caco-2 [6], 1000 nM	–	–	98.8	–	–
Caco-2 [6], 10000 nM	–	–	68.2	–	–
Calu-3 [5], 1 nM	–	–	96.4	–	–
Calu-3 [5], 10 nM	–	–	95.7	–	–
Calu-3 [5], 100 nM	–	–	106	–	–
Calu-3 [5], 1000 nM	–	–	101	–	–
Calu-3 [5], 10000 nM	–	–	60.2	–	–
HepG2 [8], 1 nM	–	–	89.3	–	–
HepG2 [8], 10 nM	–	–	110	–	–
HepG2 [8], 100 nM	–	–	101	–	–
HepG2 [8], 1000 nM	–	–	108	–	–
HepG2 [8], 10000 nM	–	–	60.5	–	–
U2OS [9], 1 nM	–	–	99	–	–
U2OS [9], 10 nM	–	–	94.6	–	–
U2OS [9], 100 nM	–	–	102	–	–
U2OS [9], 1000 nM	–	–	93.6	–	–
U2OS [9], 10000 nM	–	–	87.9	–	–
Vero E6 [7], 1 nM	–	–	88.3	–	–
Vero E6 [7], 10 nM	–	–	98.7	–	–
Vero E6 [7], 100 nM	–	–	92.1	–	–
Vero E6 [7], 1000 nM	–	–	92	–	–
Vero E6 [7], 10000 nM	–	–	86.8	–	–
[4], 0.3 µM	105	–	–	–	–
[4], 3 µM	44	–	–	–	–
[4], 10 µM	26	–	–	–	–
[4], 30 µM	26	–	–	–	–
[12], 0.3 µM	–	–	–	-0.12	–
[12], 3 µM	–	–	–	0.71	–
[12], 10 µM	–	–	–	0.8	–
[12], 30 µM	–	–	–	0.25	–
[18], 0.3 µM	–	99	–	–	–
[18], 3 µM	–	117	–	–	–
[18], 10 µM	–	111	–	–	–
[18], 30 µM	–	58	–	–	–

drug-induced phospholipidosis [%], A549-ACE2 [11]
Settings	0.3 µM	0.833333 µM	3.33333 µM	6.66667 µM	10 µM	30 µM
24 h	8.24	11.3	46.9	67.3	73.2	55.4
48 h	5.48	4.12	27.6	52.1	76.4	–
72 h	5.22	0.608	24.1	42.2	62.6	–
